Article PMC8578332 (Scientific Reports, 2021)
Where a SMILES comes first, the peptide text is derived from it. Bridges are numbered along the chain shown (N, C = ends).

Each compound was assayed against human α7-containing nAChRs (Homo sapiens, UniProt P36544) (assay: cell-based). Conditions: SEM.
human α7-containing nAChRs, sequence (P36544 23-502 limits assumed): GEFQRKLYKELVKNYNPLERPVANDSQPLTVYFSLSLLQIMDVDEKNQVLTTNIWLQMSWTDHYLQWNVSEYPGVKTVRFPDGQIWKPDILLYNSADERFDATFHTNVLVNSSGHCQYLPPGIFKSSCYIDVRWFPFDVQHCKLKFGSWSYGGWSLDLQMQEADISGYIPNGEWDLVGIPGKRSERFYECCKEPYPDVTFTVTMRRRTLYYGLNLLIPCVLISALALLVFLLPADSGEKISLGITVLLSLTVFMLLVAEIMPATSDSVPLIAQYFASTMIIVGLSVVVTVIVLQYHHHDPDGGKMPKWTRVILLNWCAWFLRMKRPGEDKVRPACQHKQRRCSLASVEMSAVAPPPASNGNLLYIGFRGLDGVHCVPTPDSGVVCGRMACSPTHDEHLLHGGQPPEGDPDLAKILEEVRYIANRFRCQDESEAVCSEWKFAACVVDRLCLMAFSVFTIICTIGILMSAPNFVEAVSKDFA
Assay type: cell-based
Work on `CC(C)[C@H](NC(=O)[C@@H]1CSSC[C@@H]2NC(=O)[C@@H](NC(=O)[C@@H](N)CO)CSSC[C@H](NC(=O)[C@H](C)NC(=O)[C@@H]3CCCN3C(=O)[C@H](CC(N)=O)NC(=O)[C@H](CCCNC(=N)N)NC(=O)[C@H](C)NC2=O)C(=O)N[C@@H](CCCNC(=N)N)C(=O)N[C@@H](Cc2c[nH]cn2)C(=O)N[C@@H](CC(N)=O)C(=O)N[C@@H](Cc2c[nH]cn2)C(=O)N2CCC[C@H]2C(=O)N1)C(N)=O` [gAusIA] (H-SCCARNPACRHNHPCV-NH2; disulfide 2-9, 3-15) yielded an IC50 of 47 ± 6.7 µM.
In the case of `CC[C@H](C)[C@@H]1NC(=O)[C@H](CC(N)=O)NC(=O)[C@@H]2CCCN2C(=O)[C@H](CC(N)=O)NC(=O)[C@H](CC(N)=O)NC(=O)[C@H](C(C)C)NC(=O)[C@H](CCCNC(=N)N)NC(=O)[C@@H]2CSSC[C@H](NC(=O)CNC(=O)[C@@H](N)CO)C(=O)N[C@@H](CSSC[C@@H](C(N)=O)NC1=O)C(=O)N[C@@H](CO)C(=O)N[C@@H](CC(N)=O)C(=O)N1CCC[C@H]1C(=O)N[C@@H](C)C(=O)N2` [gLsIA, reference compound] (H-SGCCSNPACRVNNPNIC-NH2; disulfide 3-9, 4-17), the IC50 is reported as 0.3 ± 0.063 µM.
`CC[C@H](C)[C@@H]1NC(=O)[C@@H]2CSSC[C@H](NC(=O)CN)C(=O)N[C@@H](CSSC[C@@H](C(N)=O)NC(=O)[C@H](CC(C)C)NC(=O)[C@H](CC(=O)O)NC(=O)[C@@H]3CCCN3C(=O)[C@H](CC(N)=O)NC(=O)[C@H](CC(N)=O)NC(=O)[C@H](CC(C)C)NC1=O)C(=O)N[C@@H](CO)C(=O)N[C@@H](CCCNC(=N)N)C(=O)N1CCC[C@H]1C(=O)N1CCC[C@H]1C(=O)N2` [gTxIA [A10L], reference compound] (H-GCCSRPPCILNNPDLC-NH2; disulfide 2-8, 3-16) showed an IC50 of 0.5 ± 0.036 µM.
`CC[C@H](C)[C@@H]1NC(=O)[C@@H]2CSSC[C@H](NC(=O)CN)C(=O)N[C@@H](CSSC[C@@H](C(N)=O)NC(=O)[C@H](CC(C)C)NC(=O)[C@H](CC(=O)O)NC(=O)[C@@H]3CCCN3C(=O)[C@H](CC(N)=O)NC(=O)[C@H](CC(N)=O)NC(=O)[C@H](CC(C)C)NC1=O)C(=O)N[C@@H](CO)C(=O)N[C@@H](C)C(=O)N[C@@H](CCCNC(=N)N)C(=O)N1CCC[C@H]1C(=O)N1CCC[C@H]1C(=O)N2` [gTxIA[∇A5 A10L]] (H-GCCSARPPCILNNPDLC-NH2; disulfide 2-9, 3-17) showed an IC50 of 18 ± 4 µM.
Compound `CC(C)[C@H](NC(=O)[C@@H]1CSSC[C@H](NC(=O)[C@@H](N)CO)C(=O)N[C@H]2CSSC[C@H](NC(=O)[C@H](C)NC(=O)[C@@H]3CCCN3C(=O)[C@H](CC(N)=O)NC(=O)[C@H](CCCNC(=N)N)NC(=O)[C@H](C)NC2=O)C(=O)N[C@@H](CCCNC(=N)N)C(=O)N[C@@H](Cc2c[nH]cn2)C(=O)N[C@@H](CC(N)=O)C(=O)N[C@@H](Cc2c[nH]cn2)C(=O)N2CCC[C@H]2C(=O)N1)C(N)=O` [rAusIA] (H-SCCARNPACRHNHPCV-NH2; disulfide 2-15, 3-9) has an IC50 of 26 ± 5 µM.
Compound `CC[C@H](C)[C@@H]1NC(=O)[C@H](CC(N)=O)NC(=O)[C@@H]2CCCN2C(=O)[C@H](CC(N)=O)NC(=O)[C@H](CC(N)=O)NC(=O)[C@H](C(C)C)NC(=O)[C@H](CCCNC(=N)N)NC(=O)[C@@H]2CSSC[C@H](NC(=O)[C@@H](NC(=O)CNC(=O)[C@@H](N)CO)CSSC[C@@H](C(N)=O)NC1=O)C(=O)N[C@@H](CO)C(=O)N[C@@H](CC(N)=O)C(=O)N1CCC[C@H]1C(=O)N[C@@H](C)C(=O)N2` [rLsIA, reference compound] (H-SGCCSNPACRVNNPNIC-NH2; disulfide 3-17, 4-9) has an IC50 of 41 ± 3.4 µM.
Compound `CC[C@H](C)[C@@H]1NC(=O)[C@@H]2CSSC[C@H](NC(=O)[C@@H](NC(=O)CN)CSSC[C@@H](C(N)=O)NC(=O)[C@H](CC(C)C)NC(=O)[C@H](CC(=O)O)NC(=O)[C@@H]3CCCN3C(=O)[C@H](CC(N)=O)NC(=O)[C@H](CC(N)=O)NC(=O)[C@H](CC(C)C)NC1=O)C(=O)N[C@@H](CO)C(=O)N[C@@H](CCCNC(=N)N)C(=O)N1CCC[C@H]1C(=O)N1CCC[C@H]1C(=O)N2` [rTxIA [A10L], reference compound] (H-GCCSRPPCILNNPDLC-NH2; disulfide 2-16, 3-8) has an IC50 of 6 ± 0.123 µM.
`CC[C@H](C)[C@@H]1NC(=O)[C@@H]2CSSC[C@H](NC(=O)[C@@H](NC(=O)CN)CSSC[C@@H](C(N)=O)NC(=O)[C@H](CC(C)C)NC(=O)[C@H](CC(=O)O)NC(=O)[C@@H]3CCCN3C(=O)[C@H](CC(N)=O)NC(=O)[C@H](CC(N)=O)NC(=O)[C@H](CC(C)C)NC1=O)C(=O)N[C@@H](CO)C(=O)N[C@@H](C)C(=O)N[C@@H](CCCNC(=N)N)C(=O)N1CCC[C@H]1C(=O)N1CCC[C@H]1C(=O)N2` [rTxIA[∇A5 A10L]] (H-GCCSARPPCILNNPDLC-NH2; disulfide 2-17, 3-9) was tested, and the IC50 was 39 ± 10.3 µM.
